This is an account of results in ChEMBL document CHEMBL1649459, “Analysis of cell membrane characteristics of in vitro-selected daptomycin-resistant strains of methicillin-resistant Staphylococcus aureus” (2009).

Structures are written as SMILES. Converted amounts (≈) assume the structure as drawn.

Holding throughout (assay type): functional
For test [1], the system named is Staphylococcus aureus. Put plainly: Antimicrobial activity against methicillin-resistant Staphylococcus aureus MW2 CB2202 harboring […] MprF T345I mutant after 5-day passage containing sublethal concentration of compound by Etest method. The conditions noted are these: MW2 CB2202, 120 h.
Test [2] concerns Staphylococcus aureus. Put plainly: Antimicrobial activity against methicillin-resistant Staphylococcus aureus MW2 CB2201 after 1-day passage containing sublethal concentration of compound by Etest method. The conditions noted are these: MW2 CB2201, 24 h.
Test [3] relates to Staphylococcus aureus. The test can be described thus: Antimicrobial activity against methicillin-resistant Staphylococcus aureus MW2 CB1118 by Etest method.
The subject of test [4] is Staphylococcus aureus. The test can be described thus: Antimicrobial activity against methicillin-resistant Staphylococcus aureus MW2 CB2205 harboring […] MprF T345I, RpoB I953S,YycG S221P mutant after 20-day passage containing sublethal concentration of compound by Etest method. The conditions noted are these: MW2 CB2205, 480 h.
In test [5] the test system is Staphylococcus aureus. Put plainly: Antimicrobial activity against methicillin-resistant Staphylococcus aureus MW2 CB2203 harboring […] MprF T345I, RpoB I953S mutant after 14-day passage containing sublethal concentration of compound by Etest method. The conditions noted are these: MW2 CB2203, 336 h.

For `CCCCCCCCCC(=O)N[C@@H](Cc1c[nH]c2ccccc12)C(=O)N[C@H](CC(N)=O)C(=O)N[C@@H](CC(=O)O)C(=O)N[C@@H]1C(=O)NCC(=O)N[C@@H](CCCN)C(=O)N[C@@H](CC(=O)O)C(=O)N[C@H](C)C(=O)N[C@@H](CC(=O)O)C(=O)NCC(=O)N[C@H](CO)C(=O)N[C@@H]([C@H](C)CC(=O)O)C(=O)N[C@@H](CC(=O)c2ccccc2N)C(=O)O[C@@H]1C`, the minimum inhibitory concentration (MIC) – broadly, the lowest concentration found to suppress growth – in test [1] is 3 µg/mL (≈ 1.85 µM); in test [2], 1.5 µg/mL (≈ 0.926 µM); in test [3], 1 µg/mL (≈ 0.617 µM); in test [4], 12 µg/mL (≈ 7.4 µM); in test [5], 6 µg/mL (≈ 3.7 µM).
